Data on one molecule can be found in US20240409886A1, “CULTURE MEDIUM COMPRISING DIPEPTIDES” (Evonik Operations GmbH, priority 2017, published 2024).

Residues, ends and D or L forms follow the SMILES beside them.

The test concerns antibody-producing Chinese Hamster Ovary (CHO) cell (subclone DG44). In words: product titer (antibody concentration at the end of the cultivation). The test is classed as cell-based. The note with it: for rel. product titer [-]: end of cultivation, t=18h, relative units. As for the experimental part: The effect of the Gln-Asn dipeptide on an antibody-producing Chinese Hamster Ovary (CHO) cell (subclone DG44; Life Technologies Corporation, Carlsbad, USA) was investigated using one-factor-at-a-time (OFAT) analysis.
The analysis was based on a comparison of the viable cell density and cell viability in a series of cell cultures, which were conducted at substantially identical culturing conditions, however, with increasing amounts of the Gln-Asn dipeptide in the medium. In order to keep the total amounts of Asn and Gln units (molar basis) in the various culture media constant, the molar concentration of free glutamine and free asparagine was reduced in accordance with the molar amount of the dipeptide added. A series of culture media having increasing amounts of the Gln-Asn dipeptide was prepared by mixing varying amounts of a Base Medium (comprising free Asn and Gln) and a Test Medium (comprising Asn-Gln dipeptide). A commercially available defined cell culture medium (TC-42, TeutoCell AG, Bielefeld, Germany) served as the Base Medium. (Any other suitable cell culture medium could be used.) A Test Medium (TC-42-EVO) was prepared so as to have identical nutrient concentrations compared to the Base Medium, however, instead of free Asn the Test Medium contained an equimolar amount (5.4 mM) of Gin-Asn dipeptide. Furthermore, the free Gln concentration in the Test Medium was set to a value such that the total concentration of Gln units in the Test Medium (i.e., free Gln and dipeptide-Gln) matched the concentration of free Gln in the Base Medium. All other nutrient concentrations in the Test Medium were the same as in the Base Medium. The Base Medium contained 1461.5 mg/l free Gln and 612 mg/l free Asn.
Six cell cultivations were then conducted with media containing varying amounts of the Test Medium and the Base Medium in the following proportions:
All media were set to pH 8.3. Salinity of the culture media was set to 285 mOsmol/kg with NaCl. All cultivations were conducted in on a rotary shaker under identical culture conditions (temperature, humidity, rpm, CO2, etc.), using standard cell culture methods. Three passages of a cell culture are conducted and viable cell density (VCD; 10^6 viable cells/ml) and cell viability (%) was followed in duplicate determinations, using […] determination.
Generally, an increased product titer is observed in all cultures including the Asn-containing dipeptide. In cultivations #2 and #3 (80% and 25% of the Asn present in form of the dipeptide, respectively) the product titer is more than 1.4-fold increased.

`NC(=O)CC[C@H](N)C(=O)N[C@@H](CC(N)=O)C(=O)O` [Gln-Asn, L-glutaminyl-L-asparagine] (H-Gln-Asn-OH): the “rel. product titer [-]” value reads like this: (0.3 mM dipeptide (#5)) 1.01; (0.8 mM dipeptide (#4)) 1.11; (1.4 mM dipeptide (#3)) 1.42; (4.3 mM dipeptide (#2)) 1.41; (5.4 mM dipeptide (#1)) 1.19. The product titer increase entry by setting is: (cultivation #2, 80% of the Asn present in form of the dipeptide) “more than 1.4 fold”; (cultivation #3, 25% of the Asn present in form of the dipeptide) “more than 1.4 fold”. In addition, under “cultivations #1-#4, dipeptide 0.8 mM to 5.4 mM”, the product titer result is “Significantly improved”.
